Experimental data as given in ChEMBL document CHEMBL4602601, “Pharmaceutical and medicinal significance of sulfur (SVI)-Containing motifs for drug discovery: A critical review” (Eur J Med Chem, 2019).

Key:
[1] = Inhibition of HIV protease; parameters: species or system Human immunodeficiency virus
[2] = Half life in rat; assay type: ADME; conditions: in vivo
[3] = test system: Chikungunya virus; experiment: Antiviral activity against CHIKV; assay type: functional, organism-based
[4] = test system: THP-1; experiment: Cytotoxicity against human THP1 cells assessed as reduction in cell viability; assay type: functional, cell-based
[5] = Antagonist activity at cannabinoid receptor (unknown origin); parameters: species or system Homo sapiens
[6] = target: Carbonic anhydrase 4 (Homo sapiens, UniProt P22748); experiment: Inhibition of human carbonic anhydrase 4
[7] = target: Carbonic anhydrase 2 (Homo sapiens, UniProt P00918); experiment: Inhibition of human carbonic anhydrase 2
[8] = target: 5-hydroxytryptamine receptor 6 (Homo sapiens, UniProt P50406); experiment: Antagonist activity at 5-HT6 receptor (unknown origin)
[9] = target: Carbonic anhydrase 1 (Homo sapiens, UniProt P00915); experiment: Inhibition of human carbonic anhydrase 1
[10] = target: T1, Prostaglandin G/H synthase 2 (Rattus norvegicus, UniProt P35355); experiment: Inhibition of COX2 isolated from rat seminal vesicles assessed as reduction of PGG2 to PGH2 using arachidonic acid substrate preincubated for 15 mins followed by substrate addition
T1 sequence (P35355 whole entry): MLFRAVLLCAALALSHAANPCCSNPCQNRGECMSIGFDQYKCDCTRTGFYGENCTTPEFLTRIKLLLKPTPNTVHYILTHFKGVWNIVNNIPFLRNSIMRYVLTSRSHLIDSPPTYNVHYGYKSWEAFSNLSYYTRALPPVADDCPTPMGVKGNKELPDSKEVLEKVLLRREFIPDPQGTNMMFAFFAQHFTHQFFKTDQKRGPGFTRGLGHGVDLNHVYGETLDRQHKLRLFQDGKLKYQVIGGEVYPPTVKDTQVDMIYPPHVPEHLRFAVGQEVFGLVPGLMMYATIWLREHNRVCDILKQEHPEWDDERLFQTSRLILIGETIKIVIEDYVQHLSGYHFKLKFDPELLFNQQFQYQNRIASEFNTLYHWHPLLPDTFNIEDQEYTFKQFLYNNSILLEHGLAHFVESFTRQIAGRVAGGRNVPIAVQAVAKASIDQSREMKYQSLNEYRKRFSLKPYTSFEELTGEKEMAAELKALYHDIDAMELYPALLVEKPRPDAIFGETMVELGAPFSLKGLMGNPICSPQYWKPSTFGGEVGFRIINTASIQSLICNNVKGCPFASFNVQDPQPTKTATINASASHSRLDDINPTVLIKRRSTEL

[11] = Inhibition of rat 5'-nucleotidase
[12] = target: T2, Cannabinoid receptor 1 (Homo sapiens, UniProt P21554); experiment: Antagonist activity at human cannabinoid CB1 receptor
[13] = Inhibition of HIV integrase; parameters: species or system Human immunodeficiency virus
[14] = test system: Human immunodeficiency virus 1; experiment: Antiviral activity against HIV1; assay type: functional, organism-based
[15] = Inhibition of HIV RT; parameters: species or system Human immunodeficiency virus
[16] = target: T2, Cannabinoid receptor 1; experiment: Antagonist activity at cannabinoid CB1 receptor (unknown origin)
[17] = target: Cannabinoid receptor 2 (Homo sapiens, UniProt P34972); experiment: Antagonist activity at human cannabinoid CB2 receptor
[18] = test system: Leishmania amazonensis; experiment: Antileishmanial activity against Leishmania amazonensis; assay type: functional, organism-based
[19] = test system: Leishmania infantum; experiment: Antileishmanial activity against Leishmania infantum; assay type: functional, organism-based
[20] = test system: Trypanosoma cruzi; experiment: Antitrypanosomal activity against Trypanosoma cruzi; assay type: functional, organism-based

Sequence of 5-hydroxytryptamine receptor 6 (P50406 whole entry): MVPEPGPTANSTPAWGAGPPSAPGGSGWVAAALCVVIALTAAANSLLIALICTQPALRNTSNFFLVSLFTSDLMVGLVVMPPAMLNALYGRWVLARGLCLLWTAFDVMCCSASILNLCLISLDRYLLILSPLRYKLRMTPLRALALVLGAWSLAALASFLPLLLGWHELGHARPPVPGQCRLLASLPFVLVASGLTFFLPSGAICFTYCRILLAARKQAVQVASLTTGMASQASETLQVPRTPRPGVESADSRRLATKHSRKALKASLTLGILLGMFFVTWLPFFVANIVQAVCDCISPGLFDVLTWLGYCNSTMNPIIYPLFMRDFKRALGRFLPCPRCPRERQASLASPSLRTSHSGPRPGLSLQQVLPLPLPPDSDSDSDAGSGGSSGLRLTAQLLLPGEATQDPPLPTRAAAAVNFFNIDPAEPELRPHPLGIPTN
T2 sequence (P21554 whole entry): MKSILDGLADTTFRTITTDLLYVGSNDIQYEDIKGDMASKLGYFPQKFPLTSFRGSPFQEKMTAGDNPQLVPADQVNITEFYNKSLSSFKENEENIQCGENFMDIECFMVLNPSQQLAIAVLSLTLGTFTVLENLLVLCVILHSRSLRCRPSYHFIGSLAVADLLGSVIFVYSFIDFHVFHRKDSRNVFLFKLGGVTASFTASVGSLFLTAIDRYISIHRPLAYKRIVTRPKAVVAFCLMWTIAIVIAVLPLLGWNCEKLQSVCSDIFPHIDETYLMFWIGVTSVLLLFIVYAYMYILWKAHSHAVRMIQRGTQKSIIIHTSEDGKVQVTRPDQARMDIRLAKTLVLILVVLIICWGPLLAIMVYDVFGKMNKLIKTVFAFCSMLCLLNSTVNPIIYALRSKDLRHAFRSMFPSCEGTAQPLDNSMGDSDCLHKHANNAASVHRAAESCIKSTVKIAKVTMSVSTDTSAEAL
Sequence of Carbonic anhydrase 4 (P22748 whole entry): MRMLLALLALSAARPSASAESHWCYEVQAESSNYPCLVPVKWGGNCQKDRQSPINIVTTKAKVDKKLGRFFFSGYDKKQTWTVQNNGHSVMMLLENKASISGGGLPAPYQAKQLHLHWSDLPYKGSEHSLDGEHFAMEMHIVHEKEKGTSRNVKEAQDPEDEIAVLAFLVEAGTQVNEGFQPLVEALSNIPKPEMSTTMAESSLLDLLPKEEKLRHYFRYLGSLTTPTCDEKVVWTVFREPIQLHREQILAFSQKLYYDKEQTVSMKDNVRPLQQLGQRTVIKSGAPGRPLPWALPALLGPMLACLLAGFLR
Sequence of Cannabinoid receptor 2 (P34972 whole entry): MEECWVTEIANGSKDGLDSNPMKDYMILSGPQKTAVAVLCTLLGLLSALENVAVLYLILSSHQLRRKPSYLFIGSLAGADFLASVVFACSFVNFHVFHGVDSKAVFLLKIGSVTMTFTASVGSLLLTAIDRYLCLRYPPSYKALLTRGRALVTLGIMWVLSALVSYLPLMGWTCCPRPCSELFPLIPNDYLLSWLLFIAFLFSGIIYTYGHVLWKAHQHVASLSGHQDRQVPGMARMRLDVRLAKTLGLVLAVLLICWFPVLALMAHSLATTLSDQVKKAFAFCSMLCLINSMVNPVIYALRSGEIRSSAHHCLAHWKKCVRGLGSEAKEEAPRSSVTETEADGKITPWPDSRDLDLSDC
Sequence of Carbonic anhydrase 1 (P00915 whole entry): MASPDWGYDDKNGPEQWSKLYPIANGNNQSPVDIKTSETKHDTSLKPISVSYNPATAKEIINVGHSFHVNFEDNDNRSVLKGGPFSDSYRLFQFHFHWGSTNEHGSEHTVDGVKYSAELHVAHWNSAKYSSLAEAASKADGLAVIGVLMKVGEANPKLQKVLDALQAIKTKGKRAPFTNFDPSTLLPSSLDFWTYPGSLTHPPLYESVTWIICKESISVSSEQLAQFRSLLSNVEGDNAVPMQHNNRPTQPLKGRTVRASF

What does the source list for `N#Cc1ccc(S(=O)(=O)Nc2cccc(C(c3c(O)c4c(oc3=O)CCCCCC4)C3CC3)c2)cc1` (configuration not stated)?
Ki [1]: 0.8 nM; half-life [2]: 6 h; IC50 [3]: 1.5 nM

For `O=S(=O)(Nc1ccc([Se][Se]c2ccc(NS(=O)(=O)c3ccc(F)cc3)cc2)cc1)c1ccc(F)cc1`, which IC50 [4] is on record?
The IC50 was 2800 nM.

With `Cc1ccc(S(=O)(=O)Oc2ccc3c(CSc4nc5ccccc5c(=O)[nH]4)cc(=O)oc3c2)cc1` as the compound, how does the EC50 [3] read?
Its EC50 is 10200 nM.

Which IC50 [5] does the source give for `O=S(=O)(NCc1ccc(-c2ccc(F)cc2F)cn1)c1cc2cc(Cl)ccc2[nH]1` here?
The IC50 was 3 nM.

For `COc1ccc(C2=NN(C(C)=O)C(c3ccc(OS(N)(=O)=O)cc3)C2)cc1` (configuration not stated), which IC50 [6] is on record?
The IC50 was 20.5 nM.

And the IC50 [7]?
Its IC50 is 0.4 nM.

Which Ki [8] does the source give for `O=S(=O)(Nc1ccc2sc(N3CCNCC3)nc2c1)c1cccc2ccccc12` here?
The Ki was 500 nM.

For `NS(=O)(=O)c1ccc(N2C(=O)CC/C2=C\C(=O)c2cccc(F)c2)cc1`, which IC50 [7] is on record?
The IC50 was 0.46 nM.

With `O=S(=O)(Cl)c1c(Cl)nc2n1CCS2` as the compound, how does the Ki [8] read?
The Ki was 8.4 nM.

With `CC(=O)/C(=N\Nc1cccc(-n2nc(C(=O)Nc3nnc(S(N)(=O)=O)s3)c(C(=O)Nc3nnc(S(N)(=O)=O)s3)c2-c2ccccc2)c1)C(=O)c1ccccc1` as the compound, how does the Ki [9] read?
The Ki was 119 nM.

For `C/C(=N\NC(=O)CNC(=O)c1cccc(S(=O)(=O)Nc2ccccc2Cl)c1)c1ccc(F)cc1`, which IC50 [10] is on record?
The IC50 was 8400 nM.

Which IC50 [10] does the source give for `COc1cc(/C=C2\C=C(c3ccc(Cl)cc3)N(c3ccc(S(N)(=O)=O)cc3)C2=O)cc(OC)c1OC` here?
Its IC50 is 420 nM.

For `O=S(=O)(Nc1ccc2[nH]ccc2c1)c1c(Cl)nc2n1CCS2`, which Ki [8] is on record?
The Ki was 16.9 nM.

For `NS(=O)(=O)c1ccc(N2C(=O)/C(=C/c3ccc(C(F)(F)F)cc3)C=C2c2ccc(Cl)cc2)cc1`, which IC50 [10] is on record?
The IC50 was 620 nM.

Which Ki [7] does the source give for `CCCC(=O)/C(=N/Nc1cccc(-n2nc(C(=O)Nc3nnc(S(N)(=O)=O)s3)c(C(=O)Nc3nnc(S(N)(=O)=O)s3)c2-c2ccccc2)c1)C(=O)OCC` here?
Its Ki is 884 nM.

Which IC50 [11] does the source give for `COc1ccc(/C=C/C(=O)/C(=N/Nc2ccc(S(N)(=O)=O)cc2)N2CCOCC2)cc1` here?
The IC50 was 330 nM.

Which EC50 [12] does the source give for `Cc1cc(S(=O)(=O)N2CCc3c(nc(C(C)(C)C)n3CC3CC3)C2)no1` here?
The EC50 was 5.1 nM.

For `CN(C)c1cccnc1N1CCN(C(=O)c2cc3cc(NS(C)(=O)=O)ccc3[nH]2)CC1`, which IC50 [13] is on record?
Its IC50 is 36 nM.

And the IC50 [14]?
Its IC50 is 21 nM.

What about the IC50 [15] of the same compound?
Its IC50 is over 100000 nM.

With `O=C(CNC(=O)c1cccc(S(=O)(=O)Nc2ccccc2Cl)c1)N/N=C/c1ccc(C(F)(F)F)cc1` as the compound, how does the IC50 [10] read?
Its IC50 is 8900 nM.

With `CCn1cnc2c(Oc3ccc(/C=C/C(=O)c4ccc(NS(=O)(=O)c5ccccc5C)cc4)cc3)ncnc21` as the compound, how does the EC50 [3] read?
Its EC50 is 51.6 µg/mL.

With `CC(C)c1ccc(S(=O)(=O)Nc2ccc3nc(N4CCN(C)CC4)sc3c2)cc1` as the compound, how does the IC50 [8] read?
Its IC50 is 14000 nM.

Which results are given for `O=C(NN1CCCCC1)c1cn(-c2ccc(Cl)cc2Cl)c(-c2ccc(C#Cc3ccc(C(F)(F)F)cc3)s2)c1CNS(=O)(=O)N1CCCC1`?
EC50 [16]: 3 nM; Ki [12]: 0.3 nM; Ki [17]: 21 nM

With `CN1CCN(c2nc3cc(NS(=O)(=O)c4cccc5ccccc45)ccc3s2)CC1` as the compound, how does the IC50 [8] read?
The IC50 was 3900 nM.

For `NS(=O)(=O)c1ccc(N2C(=O)CC/C2=C\C(=O)c2ccc([N+](=O)[O-])cc2Cl)cc1`, which IC50 [7] is on record?
Its IC50 is 0.46 nM.

Which EC50 [3] does the source give for `O=c1ccnc(SCc2cc(=O)oc3cc(OS(=O)(=O)c4ccccc4[N+](=O)[O-])ccc23)[nH]1` here?
Its EC50 is 13000 nM.

For `CCOc1ccc(-c2ccc(CNS(=O)(=O)c3cc4cc(Cl)ccc4[nH]3)cc2)cn1`, which IC50 [5] is on record?
The IC50 was 4 nM.

Which EC50 [12] does the source give for `Cc1cc(S(=O)(=O)N2CCc3c(nc(CC(C)(C)C)n3CC3CC3)C2)no1` here?
Its EC50 is 7 nM.

With `O=S(=O)(Nc1cccc2cnccc12)c1ccc2ccccc2c1` as the compound, how does the IC50 [18] read?
The IC50 was 42900 nM.

And the IC50 [19]?
Its IC50 is 23000 nM.

What about the IC50 [20] of the same compound?
The IC50 was 224000 nM.

Which Ki [8] does the source give for `CC(=O)N1CCc2ccc(NS(=O)(=O)c3c(Cl)nc4n3CCS4)cc21` here?
Its Ki is 5.4 nM.
